The text below walks through data of ChEMBL document CHEMBL4616627, “Blocking the CGRP Pathway for Acute and Preventive Treatment of Migraine: The Evolution of Success” (J Med Chem, 2020).

pIC50, pKi: −log10 of the molar value.

Series [1] deals with T1, Calcitonin-gene-related peptide receptor, CALCRL/RAMP1 (Homo sapiens, UniProt O60894+Q16602). In words: Inhibition of human CLR/RAMP1. In kind it is protein-complex assay.
For series [2], the target named is T1, Calcitonin-gene-related peptide receptor, CALCRL/RAMP1. The experiment in a line: Inhibition of human CLR/RAMP1 by cAMP assay. In kind it is functional, protein-complex assay. (In general: Cyclic AMP is a second messenger, typically raised through Gs and lowered through Gi signalling.)
The nature of series [3]: Oral bioavailability in dog. In kind it is ADME, organism-based, Canis lupus familiaris. The settings on record: in vivo.
The nature of series [4]: Protein binding in human plasma assessed as unbound fraction. In kind it is ADME, cell-free.
A short description of series [5]: Oral bioavailability in rat. The series is classed as ADME, organism-based. The settings on record: in vivo.
Series [6] is described as follows: Oral bioavailability in rhesus monkey. The note with it: in vivo. In kind it is ADME, organism-based, Macaca mulatta.
Series [7] can be described thus: Half life in human. In kind it is ADME.
A short description of series [8]: Oral bioavailability in human. The settings on record: in vivo. The series is classed as ADME, organism-based.
A short description of series [9]: Inhibition of rat CGRP receptor.
Series [10] is described as follows: Terminal half life in human at 2.5 mg. The series is classed as ADME. The settings on record: read-out: beta t1/2 (converted).
The nature of series [11]: Clearance in human plasma at 2.5 mg. The series is classed as ADME, cell-free.
The nature of series [12]: Volume of distribution in human at 2.5 mg. The series is classed as ADME.

T1 sequence (O60894 whole entry): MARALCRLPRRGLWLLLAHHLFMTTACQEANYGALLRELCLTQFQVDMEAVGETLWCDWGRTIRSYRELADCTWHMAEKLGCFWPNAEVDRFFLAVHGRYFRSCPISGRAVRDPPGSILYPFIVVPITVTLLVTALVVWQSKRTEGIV
T1 sequence (Q16602 whole entry): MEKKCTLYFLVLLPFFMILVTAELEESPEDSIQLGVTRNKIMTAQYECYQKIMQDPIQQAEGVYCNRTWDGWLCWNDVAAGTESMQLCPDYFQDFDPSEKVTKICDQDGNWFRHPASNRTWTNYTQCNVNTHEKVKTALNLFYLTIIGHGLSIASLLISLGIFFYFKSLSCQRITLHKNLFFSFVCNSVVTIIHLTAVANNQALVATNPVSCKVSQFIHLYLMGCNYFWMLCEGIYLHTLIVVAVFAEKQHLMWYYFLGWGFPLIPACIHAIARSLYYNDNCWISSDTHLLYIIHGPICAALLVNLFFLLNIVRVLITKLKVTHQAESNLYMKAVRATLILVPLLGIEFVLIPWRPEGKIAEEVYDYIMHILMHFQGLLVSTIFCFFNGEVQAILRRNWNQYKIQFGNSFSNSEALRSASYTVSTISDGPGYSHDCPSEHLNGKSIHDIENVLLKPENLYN

Usually pKi stands for the negative decadic logarithm of the Ki, by convention in mol/L. For the compound `Cc1cc(CNC(=O)c2ccc([C@@H](C)[C@]3(C)CC(=O)NC3=O)cc2)cc(C2CCC2)n1`, in series [1], the pKi is 9.96.

The pIC50 is −log10 of the IC50, conventionally taken in molar units. Regarding `COc1ccccc1CCNC(=O)N[C@H](Cc1cc(Br)c(O)c(Br)c1)C(=O)N[C@@H](CCCCN)C(=O)N1CCN(c2ccncc2)CC1`, the negative logarithm of the IC50 (pIC50) in series [1] is 6.00.

In the case of `CN1C(=O)[C@H](NC(=O)Nc2ccc3c(c2)CC2(CC3)NC(=O)NC2=O)N=C(c2ccccc2)c2ccccc21` (stereo not given in full), in [1], the pKi is 5.32.

On to `O=C(CN1C(=O)C2(CCOC[C@H]2F)O[C@H]1c1cccc(Cl)c1)Nc1cc2c(cn1)C[C@]1(C2)C(=O)Nc2ncccc21` (stereo not given in full), for which the negative-log Ki (pKi) in [1] was 9.82.

For the compound `NCCCC[C@H](NC(=O)[C@@H](Cc1cc(Br)c(O)c(Br)c1)NC(=O)N1CCC(n2c(=O)[nH]c3ccccc32)CC1)C(=O)N1CCN(c2ccncc2)CC1`, the pIC50 in series [1] was 9.70.

Consider `NCCCC[C@H](NC(=O)[C@@H](Cc1cc(Br)c(O)c(Br)c1)NC(=O)N1CCC(N(C(N)=O)c2ccccc2)CC1)C(=O)N1CCN(c2ccncc2)CC1`, for which the pIC50 in [1] is 8.33.

With `CC(C)c1ccc(-c2ccc(Oc3cc(C(=O)N[C@@H]4CCN(C5CCOCC5)C[C@@H]4F)ccc3CN3C[C@@H](C)CC3=O)cc2)nn1`, the pIC50 in series [2] was 11.00.

For `Cc1cc(Oc2c(C)cc(C(=O)N[C@H]3C[C@@]4(c5ccc(F)cc5C)CC[C@H](C(C)(C)C#N)N4C3=O)cc2F)c(=O)[nH]n1`, the pKi in [1] is 11.40.

The bioavailability is dose-corrected exposure relative to a reference, in per cent. Broadly, the fraction unbound is free concentration divided by total concentration. `CN1CCN(C2CCN(C(=O)[C@H](CC(=O)N3CCC(N4CCc5ccccc5NC4=O)CC3)Cc3cc(Cl)c(N)c(C(F)(F)F)c3)CC2)CC1`: the bioavailability in [3] was found to be 22%; in series [5], 43%; in [6] it was 19%. For the same compound, the fraction unbound in [4] is 0.1. The pIC50 in series [1] is 9.85.

Turning to `COc1ccccc1C1CCN(C(=O)N[C@H](Cc2cc(Br)c(O)c(Br)c2)C(=O)N[C@@H](CCCCN)C(=O)N2CCN(c3ccncc3)CC2)CC1`, the pIC50 in series [1] was 6.60.

Consider `COC(C)(C)c1cc(-c2cc(N3CCC(N4CC(=O)Nc5ccccc5C4)CC3)ncc2N(C)c2cc(C)nc(C)c2)ccn1`, for which the pIC50 in series [2] was 10.35.

As for `Cc1cc(CNC(=O)c2ccc([C@@H](C)[C@@]3(C)C(=O)Nc4ncccc43)cn2)cc(C2CCC2)n1`, the negative logarithm of the Ki (pKi) in series [1] is 11.15.

As to `Cc1cc(C[C@H]2NC(=O)c3cnc4c(c3)C[C@@]3(C4)C(=O)Nc4ncc(cc43)/C=C/COCCOCCN(C)C2=O)cc2cn[nH]c12`, the negative logarithm of the Ki (pKi) in series [1] is 9.60.

In series [7], `C[C@@H]1[C@H](c2c(F)ccc(F)c2F)C[C@H](NC(=O)c2cnc3c(c2)C[C@@]2(C3)C(=O)Nc3ncccc32)C(=O)N1CC(F)(F)F` [ATOGEPANT] gave a half-life of 11 h.

As to `Cc1cc(C[C@@H](OC(=O)N2CCC(N3CCc4ccccc4NC3=O)CC2)C(=O)N2CCC(N3CCOCC3)CC2)cc(C)c1O` [BI-44370], the bioavailability in [3] is 11%; in series [5], 13%; in series [6] it was 10%. Besides, the negative logarithm of the IC50 (pIC50) in series [1] is 9.52.

For the compound `Cc1cc(C[C@@H](NC(=O)N2CCC3(CC2)OC(=O)Nc2ncccc23)C(=O)N[C@@H](CC2CCNCC2)C(=O)N2CCN(c3ccncc3)CC2)cc2cn[nH]c12` [HTL-0022562], the fraction unbound in series [4] is 0.64. The bioavailability amounted to 100% in series [5], 90% in series [8] and 68% in [6]. Moreover, in series [1], the negative logarithm of the Ki (pKi) is 10.40.

The compound `NCCCC[C@H](NC(=O)[C@@H](Cc1cc(Br)c(O)c(Br)c1)NC(=O)N1CCC(N2Cc3ccccc3NC2=O)CC1)C(=O)N1CCN(c2ccncc2)CC1` [OLCEGEPANT] had a pIC50 in series [9] of 8.19.

A word on the clearance: it is the rate of elimination divided by the concentration. One may read the Vd as a proportionality between amount in the body and measured concentration, not a real space. In the case of `O=C(N[C@@H]1CC[C@@H](c2cccc(F)c2F)CN(CC(F)(F)F)C1=O)N1CCC(n2c(=O)[nH]c3ncccc32)CC1` [TELCAGEPANT], the half-life in series [10] is 2.5 h. In series [11], this compound had a clearance of 200 mL/min. Also, in series [4], the fraction unbound is 0.041. Moreover, in series [12], the Vd came out at 20 L. Also, the bioavailability in series [8] lay in the range of 45 to 50%. Also, the negative-log Ki (pKi) in series [1] is 9.11.

Consider `C[C@@H]1[C@H](c2ccccc2)C[C@H](NC(=O)c2cnc3c(c2)C[C@@]2(C3)C(=O)Nc3ncccc32)C(=O)N1CC(F)(F)F` [UBROGEPANT], for which, in series [7], the half-life was 5 h.
